Structures are written as SMILES. Read-outs that look alike come from different tables or passages of the source.

In experiment [1] the test system is peripheral blood mononuclear cells. Description: PHA-induced proliferation of peripheral blood mononuclear cells (thymidine incorporation). In kind it is cell-based. As to conditions: Homo sapiens, PBMC, read-out: % INHIBITION OF PROLIFERATION
The method, then: Mononuclear cells were separated from peripheral blood of normal human donors as described by Ferrante and Thong (1978 . . . ). The mononuclear cells were resuspended in RPMI-1640 containing 20% human AB serum and placed into 96 well microtrays (50 μl per well, cell density 4×10^6 cells/ml). Fatty acid was then added in 50 μl and pre-incubated with the cells for 30 min at 37° C. in 5% CO2. Mitogen (PHA, ConA, PWM. Staph, Aureus) was then added in 100 μl and the cells incubated for 66 hours at 37° C. in 5% CO2 before the addition of tritiated thymnidine (1 μCi/well). After a total of 72 h in culture, the cells were harvested and proliferation (thymidine incorporation) and supernatants assayed for the presence of cytokines.

Experiment [2] deals with chloroquine-resistant P. falciparum strain K. In words: Inhibition of chloroquine-resistant P. falciparum strain K (direct anti-malarial activity). As to conditions: All PUFA at 11μm. It counts as cell-based.

For the compound `CC/C=C\C/C=C\C/C=C\C/C=C\C/C=C\CCCC(=O)NCC(=O)O` [eicosapentaenoic acid-glycine-OH, Eicosapentaenoic acid-glycine-OH], the inhibition at 20 µM in experiment [1] (All PUFA at 20μM, PHA-induced) is 5.4%. `CCN(CC)CCCC(C)Nc1ccnc2cc(Cl)ccc12` (centres unmarked) [Chloroquine, reference compound]: in experiment [2], the “% INHIBITION of P. falciparum” value came out at 20.1%.

On to `CC/C=C\C/C=C\C/C=C\C/C=C\C/C=C\C/C=C\CCC(=O)NCC(=O)O` [docosahexaenoic acid-glycine-OH, Docosahexaenoic acid-glycine-OH], for which the inhibition at 20 µM in experiment [1] (All PUFA at 20μM, PHA-induced) came to 16.6%. In experiment [2], the “% INHIBITION of P. falciparum” value was 84.9%. For `CCCCC/C=C\C/C=C\C/C=C\CCCCC(=O)N[C@@H](CC(=O)O)C(=O)O` [γ-linolenic acid-aspartic acid-OH, Gamma Linolenic-Aspartic Acid-OH], the inhibition at 20 µM in experiment [1] (All PUFA at 20μM, PHA-induced) was determined as 7.3%. Still for that read-out and setting: the same measure for `CC/C=C\C/C=C\C/C=C\CCCCCCCC(=O)N[C@@H](CC(=O)O)C(=O)O` [α-linolenic acid-aspartic acid-OH, Linolenic Acid-Aspartic Acid-OH]: 15.4%.

`CCCCC/C=C\C/C=C\C/C=C\C/C=C\CCCC(=O)NCC(=O)O` [arachidonic acid-glycine-OH, Arachidonic Acid-Glycine-OH]: the inhibition at 20 µM in experiment [1] was determined as 8%. Moreover, the “% INHIBITION of P. falciparum” value in experiment [2] was determined as 84.2%.

On to `CC/C=C\C/C=C\C/C=C\C/C=C\C/C=C\CCCC(=O)N[C@@H](CC(=O)O)C(=O)O` [eicosapentaenoic acid-aspartic acid-OH, Eicosapentaenoic acid-aspartic acid-OH], for which the inhibition at 20 µM in experiment [1] (All PUFA at 20μM, PHA-induced) stood at 20.7%. The same measure, in the same setting: the same measure for `CC/C=C\C/C=C\C/C=C\C/C=C\C/C=C\C/C=C\CCC(=O)N[C@@H](CC(=O)O)C(=O)O` [docosahexaenoic acid-aspartic acid-OH, Docosahexaenoic Acid-Aspartic Acid-OH]: 21.1%. Turning to `CCCCC/C=C\C/C=C\C/C=C\CCCCC(=O)NCC(=O)O` [γ-linolenic acid-glycine-OH, Gamma Linolenic Acid-Glycine-OH], in experiment [1] (All PUFA at 20μM, PHA-induced), the inhibition at 20 µM was 15.6%.

As for `CC/C=C\C/C=C\C/C=C\CCCCCCCC(=O)NCC(=O)O` [α-linolenic acid-glycine-OH, Linolenic Acid-Glycine-OH], in experiment [1] (All PUFA at 20μM, PHA-induced), the inhibition at 20 µM turned out to be 29%. In experiment [2], the “% INHIBITION of P. falciparum” value was 81.5%. Regarding `CCCCC/C=C\C/C=C\C/C=C\C/C=C\CCCC(=O)N[C@@H](CC(=O)O)C(=O)O` [arachidonic acid-aspartic acid-OH, Arachidonic-aspartic acid-OH], in experiment [1], the inhibition at 20 µM came to 39.7%.

Source of the values: patent publication US5998476A, “Synthetic polyunsaturated fatty acid analogues” (Peptide Technology Limited, priority 1994, dated 1999).
